Experimental data from ChEMBL document CHEMBL1201862, “PubChem BioAssay data set” (2004).
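1) Cells in 96-well plates. 2) Compound, 48 h, 5 concentrations. 3) Linear interpolation between surrounding doses. 4) Unreached endpoint = highest concentration. GI50: concentration for 50% inhibition of growth.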 The source made the active and inactive calls. Cut-off read from the data, not from the text of the source: active = GI50 up to about 1.1 µM and inactive = higher.

Legend:
Assay in all cases: NCI-60 cell line screen, 48 h
CCRF-CEM = tested on: CCRF-CEM
NCI-H226 = tested on: NCI-H226
MDA-MB-231 = tested on: MDA-MB-231
PC-3 = tested on: PC-3
OVCAR-8 = tested on: OVCAR-8
COLO 205 = tested on: COLO 205
SK-MEL-28 = tested on: SK-MEL-28
SK-MEL-5 = tested on: SK-MEL-5
MDA-N = tested on: MDA-N
BT-549 = tested on: BT-549
RXF 393 = tested on: RXF 393
HOP-92 = tested on: HOP-92
SNB-19 = tested on: SNB-19
MDA-MB-435 = tested on: MDA-MB-435
NCI-H460 = tested on: NCI-H460
IGROV-1 = tested on: IGROV-1
CAKI-1 = tested on: CAKI-1
A549 = tested on: A549
MCF7 = tested on: MCF7

For `O=C(C1OC1c1ccc([N+](=O)[O-])cc1)C12CC3CC(CC(C3)C1)C2` (stereo not given), the GI50 (CCRF-CEM) was 2.79 µM (inactive), the GI50 (NCI-H226) was 17.2 µM (inactive) and the GI50 (MDA-MB-231) was 16.7 µM (inactive). The GI50 (PC-3) was 14.6 µM (inactive), the GI50 (OVCAR-8) was 16.6 µM (inactive) and the GI50 (COLO 205) was 19.2 µM (inactive). The GI50 (SK-MEL-28) was 17.6 µM (inactive), the GI50 (SK-MEL-5) was 15.6 µM (inactive) and the GI50 (MDA-N) was 11.6 µM (inactive). For the same compound, the GI50 (BT-549) was 23.8 µM (inactive), the GI50 (RXF 393) was 22.5 µM (inactive) and the GI50 (HOP-92) was 20.3 µM (inactive). For the same compound, the GI50 (SNB-19) was 17.5 µM (inactive), the GI50 (MDA-MB-435) was 12.3 µM (inactive) and the GI50 (NCI-H460) was 13.6 µM (inactive). For the same compound, the GI50 (IGROV-1) was 16.4 µM (inactive), the GI50 (CAKI-1) was 20.3 µM (inactive) and the GI50 (A549) was 25.7 µM (inactive). The GI50 (MCF7) was 13.3 µM (inactive).

`CC1CC(C)[C@H](O)C([C@H](O)CC2CC(=O)N(C)C(=O)C2)C1` (stereo not given in full) was tested, and the GI50 (CCRF-CEM) was > 100 µM (inactive), the GI50 (NCI-H226) was > 100 µM (inactive) and the GI50 (MDA-MB-231) was > 100 µM (inactive). For the same compound, the GI50 (PC-3) was > 100 µM (inactive), the GI50 (OVCAR-8) was > 100 µM (inactive) and the GI50 (COLO 205) was > 100 µM (inactive). For the same compound, the GI50 (SK-MEL-28) was > 100 µM (inactive), the GI50 (SK-MEL-5) was > 100 µM (inactive) and the GI50 (MDA-N) was > 100 µM (inactive). The GI50 (BT-549) was > 100 µM (inactive), the GI50 (RXF 393) was > 100 µM (inactive) and the GI50 (HOP-92) was 32.3 µM (inactive). For the same compound, the GI50 (SNB-19) was > 100 µM (inactive), the GI50 (MDA-MB-435) was > 100 µM (inactive) and the GI50 (NCI-H460) was > 100 µM (inactive). For the same compound, the GI50 (IGROV-1) was > 100 µM (inactive), the GI50 (CAKI-1) was > 100 µM (inactive) and the GI50 (A549) was > 100 µM (inactive). The GI50 (MCF7) was > 100 µM (inactive).

In the case of `CC(=O)OCC1OC(N2C(C)=C(C(C)=O)C(c3ccc(Cl)cc3)C(C#N)=C2S)C(OC(C)=O)C(OC(C)=O)C1OC(C)=O` (stereo not given), the GI50 (CCRF-CEM) was 44.1 µM (inactive), the GI50 (NCI-H226) was 44.1 µM (inactive) and the GI50 (MDA-MB-231) was 87.5 µM (inactive). The GI50 (PC-3) was 36 µM (inactive), the GI50 (OVCAR-8) was 52.5 µM (inactive) and the GI50 (COLO 205) was 19.4 µM (inactive). The GI50 (SK-MEL-28) was 47.1 µM (inactive), the GI50 (SK-MEL-5) was 32.3 µM (inactive) and the GI50 (MDA-N) was 42.5 µM (inactive). For the same compound, the GI50 (BT-549) was 62.4 µM (inactive), the GI50 (RXF 393) was 52.8 µM (inactive) and the GI50 (HOP-92) was 33.6 µM (inactive). For the same compound, the GI50 (SNB-19) was > 100 µM (inactive), the GI50 (MDA-MB-435) was 36.8 µM (inactive) and the GI50 (NCI-H460) was 45.1 µM (inactive). The GI50 (IGROV-1) was 57.5 µM (inactive), the GI50 (CAKI-1) was > 100 µM (inactive) and the GI50 (A549) was 49.9 µM (inactive). For the same compound, the GI50 (MCF7) was 47 µM (inactive).

In the case of `CC(Oc1ccccc1)C(=O)NNC(=O)OC(C)(C)C` (stereo not given), the GI50 (CCRF-CEM) was > 100 µM (inactive), the GI50 (NCI-H226) was > 100 µM (inactive) and the GI50 (MDA-MB-231) was > 100 µM (inactive). The GI50 (PC-3) was > 100 µM (inactive), the GI50 (OVCAR-8) was > 100 µM (inactive) and the GI50 (COLO 205) was > 100 µM (inactive). The GI50 (SK-MEL-28) was > 100 µM (inactive), the GI50 (SK-MEL-5) was > 100 µM (inactive) and the GI50 (MDA-N) was > 100 µM (inactive). The GI50 (BT-549) was > 100 µM (inactive), the GI50 (RXF 393) was > 100 µM (inactive) and the GI50 (HOP-92) was > 100 µM (inactive). For the same compound, the GI50 (SNB-19) was > 100 µM (inactive), the GI50 (MDA-MB-435) was > 100 µM (inactive) and the GI50 (NCI-H460) was > 100 µM (inactive). For the same compound, the GI50 (IGROV-1) was > 100 µM (inactive), the GI50 (CAKI-1) was > 100 µM (inactive) and the GI50 (A549) was > 100 µM (inactive). The GI50 (MCF7) was > 100 µM (inactive).

For `CN(C)CCNc1ccc2c(=O)n(CCN(C)C)c(=O)n3c4ccccc4c(=O)c1c23`, the GI50 (CCRF-CEM) was < 0.01 µM (active), the GI50 (NCI-H226) was 0.0603 µM (active) and the GI50 (MDA-MB-231) was 0.114 µM (active). For the same compound, the GI50 (PC-3) was 0.114 µM (active), the GI50 (OVCAR-8) was 0.0711 µM (active) and the GI50 (COLO 205) was 0.17 µM (active). For the same compound, the GI50 (SK-MEL-28) was 0.116 µM (active), the GI50 (SK-MEL-5) was 0.0427 µM (active) and the GI50 (MDA-N) was 0.133 µM (active). For the same compound, the GI50 (BT-549) was 0.238 µM (active), the GI50 (RXF 393) was 0.109 µM (active) and the GI50 (HOP-92) was 0.0516 µM (active). The GI50 (SNB-19) was 0.137 µM (active), the GI50 (MDA-MB-435) was 0.145 µM (active) and the GI50 (NCI-H460) was < 0.0113 µM (active). For the same compound, the GI50 (IGROV-1) was 0.0404 µM (active), the GI50 (CAKI-1) was 0.0133 µM (active) and the GI50 (A549) was < 0.0216 µM (active). For the same compound, the GI50 (MCF7) was < 0.0174 µM (active).
